IC50 data for twelve compounds are collected here from ChEMBL document CHEMBL1130361, “Homology modeling of the ampa receptor: A quantitative predictive tool for the design of novel antagonists” (Bioorg Med Chem Lett, 1997).

The test deals with Glutamate receptor ionotropic AMPA (Homo sapiens, UniProt P42261+P42262+P42263+P48058).
Description: Binding affinity against AMPA receptor using [3H]- AMPA radioligand
As usually defined, the IC50 is the concentration that gives 50% inhibition. Read a low IC50 as inhibition by little substance. Regarding `COC(=O)c1cc2nc(O)c(O)nc2c2c1CN(C)CC2`, 44000 nM corresponded to half-maximal inhibition (IC50). This counts as double-digit micromolar.

In turn, `Oc1nc2ccc3c(c2nc1O)CCCN3` displayed a half-inhibitory concentration (IC50) of 24000 nM.

`C[C@@]12CC[C@H](CCc3nnn[nH]3)C[C@]1(C)CC(C(=O)O)NC2` (some centres not stated) showed an IC50 of 1350 nM.

In turn, `CCN1CCc2c([N+](=O)[O-])cc3[nH]c(=O)c(=O)[nH]c3c2C1` had an IC50 of 166 nM.

As for `O=[N+]([O-])c1ccc2nc(O)c(O)nc2c1`, the IC50 was found to be 2000 nM.

The compound `O=C1Nc2c(ccc3c2CCCC3)/C1=N/O` yielded an IC50 of 7200 nM.

Compound `CN1CCc2c([N+](=O)[O-])cc3[nH]c(=O)c(=O)[nH]c3c2C1` yielded an IC50 of 80 nM.

Compound `CN1Cc2c(S(=O)(=O)N(C)C)cc3c(N=O)c(O)[nH]c3c2C1` had a 50% inhibitory concentration (IC50) of 700 nM.

`CN1CCc2c(-c3ccc([N+](=O)[O-])cc3)cc3c(c2C1)NC(=O)/C3=N\O` returned a half-maximal inhibitory concentration (IC50) of 150 nM.

In the case of `CC(C)N1CCc2c([N+](=O)[O-])cc3[nH]c(=O)c(=O)[nH]c3c2C1`, the IC50 was found to be 153 nM.

Regarding `C[C@@]12CC[C@H](CSc3nn[nH]n3)C[C@]1(C)CC(C(=O)O)NC2` (some centres not stated), the half-maximal inhibitory concentration (IC50) was determined as 580 nM. Compared with the last compound, the IC50 is about 3.8-fold higher.

`C[C@@]12CC[C@H](CS(=O)(=O)c3nc[nH]n3)C[C@]1(C)CC(C(=O)O)NC2` (some centres not stated) registered an IC50 of 630 nM.
